For one test, the target named is T1, acid sphingomyelinase (Homo sapiens, UniProt P17405).
T1 construct: a sonicate of HL60 leukemic cells was used as enzyme source; endogenous in cells; host or cells: HL60 leukemic cells (sonicate)
T1 sequence (P17405 47-631): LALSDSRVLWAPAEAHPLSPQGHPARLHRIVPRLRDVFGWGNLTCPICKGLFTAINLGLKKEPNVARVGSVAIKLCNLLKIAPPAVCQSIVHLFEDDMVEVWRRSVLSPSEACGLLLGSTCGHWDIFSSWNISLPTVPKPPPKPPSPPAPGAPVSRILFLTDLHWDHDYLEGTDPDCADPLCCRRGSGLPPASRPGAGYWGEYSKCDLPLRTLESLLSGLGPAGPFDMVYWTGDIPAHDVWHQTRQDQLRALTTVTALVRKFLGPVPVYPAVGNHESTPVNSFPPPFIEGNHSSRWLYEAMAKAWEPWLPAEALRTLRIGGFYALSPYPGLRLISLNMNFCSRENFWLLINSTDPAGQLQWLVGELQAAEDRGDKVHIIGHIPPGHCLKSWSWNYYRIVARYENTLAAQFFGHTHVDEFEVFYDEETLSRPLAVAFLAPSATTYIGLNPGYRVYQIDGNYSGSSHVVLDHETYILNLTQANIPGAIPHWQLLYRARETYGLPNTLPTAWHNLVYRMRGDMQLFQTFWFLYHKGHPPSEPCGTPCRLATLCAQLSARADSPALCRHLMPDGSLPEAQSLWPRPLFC
Briefly: Acid sphingomyelinase inhibition, HL60 sonicate. Format: biochemical. The conditions noted are these: pH 5.0, 300 μM. On the procedure: (§1) N-hexyl-sphingosyl phosphorylcholine (AD-2144) was tested as to its inhibitory effect on sphingomyelinases, acidic (i.e., with an optimum at about pH 5) or neutral (with a pH optimum at about pH 7.4). For this purpose a sonicate of HL60 leukemic cells was used as enzyme source. Increasing concentrations of AD-2144 were dispersed by a mixture of fluorescent and non-fluorescent sphingomyelin (Bodipy-C12-SPM:SPM, 1:19), buffer and 0.25% Triton-X10O in a volume of 100 μl. For acid sphingomyelinase 0.4M acetate buffer pH 5.0 was used; for neutral sphingomyelinase 0.2M Tris buffer, pH 7.4 and 5 mM magnesium chloride. To 100 μl of these dispersions, 100 μl of HL60 cells sonicate were added. Incubation was 2-3 hours after which 0.8 ml of chloroform:methanol 2:1 were added, stirred and the lower, chloroform phase was collected, dried and applied to a thin layer chromatography plate. The plate was developed in a mixture of chloroform and methanol, 87:3. The fluorescence of the product, i.e., Bodipy-C12-ceramide, was quantified.

Another test concerns neutral sphingomyelinase. In words: Neutral sphingomyelinase inhibition, HL60 sonicate. As to conditions: pH 7.4, 300 μM. Format: biochemical, Human. The protocol:
as §1

The subject of test [1] is Bod3-SPM synthesis in MCF-NCi cells. In words: Sphingolipid metabolism: Bod3-SPM in MCF-NCi. It counts as cell-based, Human. The conditions noted are these: 3 hours, 2.5 μM Bodipy-C3-ceramide, read-out: od 3-SPM (IC50 for reduction of Bod3-SPM). The protocol: (§2) In order to examine the effect of the different compounds on sphingolipids metabolism, different cell lines were incubated with increasing concentrations of different compounds of the invention in the presence of 2.5 μM Bodipy-C3-ceramide that was added to the culture medium as a solution in dimethylsulfoxide (not exceeding 0.1% DMSO of the final volium). After 3 hours, cells and medium were collected and centrifuged. Cells were next extracted with chloroform-methanol containing 2% acetic acid 1:1 (by volume) and the medium was shaken with an equal volume of chloroform-methanol, 1:1 (by volume). The phases were separated by centrifugation and the lower chloroform phase was collected. The solvents were evaporated and applied to thin layer chromatography silica gel plates (Whatman 4865-821) with a concentrating zone.
(§3) Plates were developed as follows: For medium: in chloroform-methanol-H2O, 75:25:4 by volume. For cells: plates were first developed with chloroform-methanol, 9:1, then dried and re-run in chloroform-methanol: H2O, 65:35:4.
(§4) Standards of Bodipy-C3-ceramide: Bodipy-C3-glucosylceramide (Bod3-GC) and Bodipy C3 sphingomyelin (Bod3-SPM) were used as markers. The fluorescence of the respective Bod3-SPM and Bod3-GC spots was quantified using a Fuji FLA-2000 scanner.

The subject of a further test is HL60 cells. Briefly: Apoptosis in HL60 cells, propidium iodide flow cytometry (FACS). It counts as cell-based, Human. On the procedure:
The apoptotic effect of three different compounds was further examined on HL60 cells using a flow cytometry method. […] Washed cells were then treated with 5% Triton and stained with propidium iodide 0.5% mg in 0.1% sodium citrate pH 7.4. Analysis was performed using a Becton Dickinson Fluorescence Activated Cell Sorter (FACS).
For orientation: Flow cytometry measures light scatter and fluorescence of single cells or particles in a stream.

For test [2], the system named is Bod3-GC (glucosylceramide) synthesis in HL60 cells. In words: Sphingolipid metabolism from Bodipy-C3-ceramide: Bod3-GC in HL60. It counts as cell-based, Human. The conditions noted are these: HL60, 3 hours, 2.5 μM Bodipy-C3-ceramide; read-out: od 3-GC (IC50 for Bod3-GC reduction). On the procedure: as §2, §3, §4
The test system of test [3] is Bod3-SPM (sphingomyelin) synthesis in HL60 cells. In words: Sphingolipid metabolism from Bodipy-C3-ceramide: Bod3-SPM in HL60. Format: cell-based, Human. The conditions noted are these: HL60, 3 hours, 2.5 μM Bodipy-C3-ceramide; read-out: od 3-SPM (IC50 for reduction of Bod3-SPM, cell+medium). The protocol: as §2, §3, §4

Structures are written as SMILES.

Consider `CCCCCCCCCCCCC/C=C/[C@H](O)[C@@H](COP(=O)([O-])OCC[N+](C)(C)C)NCCCCCC` [AD-2144, L-Erythro Sphingosyl Phosphorylcholine-N-Hexyl], for which the “reduction in Bodipy-C12-ceramide” value on acid sphingomyelinase and in the test on neutral sphingomyelinase was “over 60%” throughout.

By IC50 is commonly meant the concentration that gives 50% inhibition. As for `CCCCCCNc1ccc([C@@H](O)[C@@H](CO)NCCCCCC)cc1` [AD-2665, (2R,3R)-2-(N-hexylamine)-1-(4-N-hexylaminophenyl)-1,3-propanediol], the IC50 in test [1] amounted to 7 µM; in test [2] it was 5 µM; in test [3], 4 µM. Besides, the apoptotic cells with HL60 cells (HL60, 30 min, 40 μM) is on record as 5%; in the test with HL60 cells (HL60, 3 hours, 10 μM), “about 8%”; in the test with HL60 cells (HL60, 3 hours, 20 μM), 26%; in the test on HL60 cells (HL60, 24 hours, 10 μM) it was 25%.

(Values after patent US6756504B2, “Sphingolipids” (Yissum Research Development Company of the Hebrew …, priority 2000, dated 2004).)
